Source: patent US12371428B2 (Exelixis, Inc., priority 2019, dated 2025)

Experiments:
Format in all cases: cell-based
[1] = biological target: Met (phospho-Met, HGF-stimulated PC-3 prostate cancer cells) (Homo sapiens (Human), UniProt P08581); assay: Met autophosphorylation ELISA in PC-3 cells (Example F); conditions: cellular activity; Met autophosphorylation ELISA in PC-3 cells; read-out: c-Met IC50
In short: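 PC-3 cells, serum-starved 3 h, were treated with compounds (8-point dose curve, 0.3% DMSO final) for 1 h, then stimulated with 100 ng/mL recombinant human HGF for 10 min. Lysate phospho-Met (panTyr) was quantified by sandwich ELISA; IC50 from 4-parameter logistic fit.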

[2] = biological target: KDR (phospho-KDR, VEGF165-stimulated HUVEC cells) (Homo sapiens (Human), UniProt P35968); assay: KDR autophosphorylation ELISA in HUVEC cells (Example G); conditions: cellular activity; KDR autophosphorylation ELISA in HUVEC cells
Sequence of KDR (phospho-KDR, VEGF165-stimulated HUVEC cells) (P35968 20-1356): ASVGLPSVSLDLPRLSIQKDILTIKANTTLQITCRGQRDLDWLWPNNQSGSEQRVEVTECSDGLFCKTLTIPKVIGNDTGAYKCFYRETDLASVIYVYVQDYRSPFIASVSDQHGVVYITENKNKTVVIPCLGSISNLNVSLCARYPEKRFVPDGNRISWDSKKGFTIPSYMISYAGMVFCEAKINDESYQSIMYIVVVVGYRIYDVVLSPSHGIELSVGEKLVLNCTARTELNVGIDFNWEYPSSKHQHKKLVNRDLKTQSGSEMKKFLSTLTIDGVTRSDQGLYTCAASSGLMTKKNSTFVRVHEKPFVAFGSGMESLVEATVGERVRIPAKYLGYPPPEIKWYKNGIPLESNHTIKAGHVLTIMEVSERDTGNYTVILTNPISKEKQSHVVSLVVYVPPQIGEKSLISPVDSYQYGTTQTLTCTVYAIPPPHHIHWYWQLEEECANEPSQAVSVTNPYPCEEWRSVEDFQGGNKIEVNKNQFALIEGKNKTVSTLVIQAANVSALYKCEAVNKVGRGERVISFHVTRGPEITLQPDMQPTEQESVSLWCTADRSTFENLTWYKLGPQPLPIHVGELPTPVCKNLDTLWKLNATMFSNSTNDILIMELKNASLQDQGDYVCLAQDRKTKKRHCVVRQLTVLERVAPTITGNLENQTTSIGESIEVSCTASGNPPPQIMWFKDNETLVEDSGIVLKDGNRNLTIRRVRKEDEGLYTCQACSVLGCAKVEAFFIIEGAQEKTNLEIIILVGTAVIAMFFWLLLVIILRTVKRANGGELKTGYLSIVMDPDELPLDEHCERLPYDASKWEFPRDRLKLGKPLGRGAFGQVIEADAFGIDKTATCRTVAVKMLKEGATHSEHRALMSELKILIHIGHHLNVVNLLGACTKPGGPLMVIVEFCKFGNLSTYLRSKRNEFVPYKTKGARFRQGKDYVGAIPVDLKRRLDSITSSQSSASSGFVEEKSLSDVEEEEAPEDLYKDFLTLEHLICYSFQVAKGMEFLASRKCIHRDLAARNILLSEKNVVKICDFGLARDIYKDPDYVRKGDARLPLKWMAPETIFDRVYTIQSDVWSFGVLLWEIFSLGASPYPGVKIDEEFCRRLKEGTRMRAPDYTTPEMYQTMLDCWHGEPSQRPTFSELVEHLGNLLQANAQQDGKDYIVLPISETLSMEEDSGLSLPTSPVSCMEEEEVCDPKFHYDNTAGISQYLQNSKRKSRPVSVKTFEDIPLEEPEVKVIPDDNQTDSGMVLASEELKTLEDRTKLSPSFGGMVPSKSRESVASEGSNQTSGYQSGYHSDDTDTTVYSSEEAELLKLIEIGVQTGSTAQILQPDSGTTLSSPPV
In short: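 Read-out is phospho-KDR measured by ELISA in lysates of VEGF165-stimulated (100 ng/mL, 5 min) HUVEC that were serum-starved 24 h and then pre-exposed 1 h to compound across 8 doses in 0.3% DMSO. Unstimulated lysates defined 0% and stimulated vehicle lysates 100% activity; IC50 values come from 4-parameter logistic regression.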

[3] = biological target: AXL (phospho-AXL, Gas6-stimulated A-172 glioblastoma cells) (Homo sapiens (Human), UniProt P30530); assay: AXL autophosphorylation ELISA in A-172 cells (Example E); conditions: cellular activity; AXL autophosphorylation ELISA in A-172 cells; read-out: Axl IC50
Sequence of AXL (phospho-AXL, Gas6-stimulated A-172 glioblastoma cells) (P30530 26-894): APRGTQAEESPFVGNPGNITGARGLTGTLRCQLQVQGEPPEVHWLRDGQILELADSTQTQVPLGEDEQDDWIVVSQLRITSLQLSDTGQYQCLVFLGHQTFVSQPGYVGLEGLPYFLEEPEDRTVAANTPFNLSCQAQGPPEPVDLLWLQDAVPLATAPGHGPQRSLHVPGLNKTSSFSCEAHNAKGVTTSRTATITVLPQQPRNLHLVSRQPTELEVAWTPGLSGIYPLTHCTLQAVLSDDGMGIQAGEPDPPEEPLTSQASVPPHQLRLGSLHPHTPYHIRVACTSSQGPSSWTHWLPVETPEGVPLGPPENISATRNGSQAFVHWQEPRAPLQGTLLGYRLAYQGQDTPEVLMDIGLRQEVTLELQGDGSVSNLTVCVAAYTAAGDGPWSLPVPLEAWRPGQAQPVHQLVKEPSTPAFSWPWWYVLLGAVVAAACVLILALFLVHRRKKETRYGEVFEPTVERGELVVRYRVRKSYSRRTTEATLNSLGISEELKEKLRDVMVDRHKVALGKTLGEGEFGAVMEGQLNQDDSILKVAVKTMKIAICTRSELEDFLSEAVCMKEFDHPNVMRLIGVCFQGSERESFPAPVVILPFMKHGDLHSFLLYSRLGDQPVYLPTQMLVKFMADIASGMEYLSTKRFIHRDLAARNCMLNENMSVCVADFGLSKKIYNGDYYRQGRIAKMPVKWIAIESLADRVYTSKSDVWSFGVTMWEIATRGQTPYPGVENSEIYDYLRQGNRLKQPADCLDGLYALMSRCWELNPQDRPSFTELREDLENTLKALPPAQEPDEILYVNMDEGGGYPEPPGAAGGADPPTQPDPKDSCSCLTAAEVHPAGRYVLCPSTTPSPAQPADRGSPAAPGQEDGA
In short: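 Phospho-AXL was measured by ELISA in lysates of Gas6-stimulated A-172 cells, starved 24 h in serum-free medium and exposed 1 h to an 8-point compound dilution at 0.3% DMSO.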

[4] = biological target: Mer (phospho-Mer, MERTK-transfected 293A cells) (Homo sapiens (Human), UniProt Q12866); assay: Mer autophosphorylation ELISA in transient transfected 293A cells (Example H); conditions: cellular activity; Mer autophosphorylation ELISA in transient transfected 293A cells
Sequence of Mer (phospho-Mer, MERTK-transfected 293A cells) (Q12866 21-999): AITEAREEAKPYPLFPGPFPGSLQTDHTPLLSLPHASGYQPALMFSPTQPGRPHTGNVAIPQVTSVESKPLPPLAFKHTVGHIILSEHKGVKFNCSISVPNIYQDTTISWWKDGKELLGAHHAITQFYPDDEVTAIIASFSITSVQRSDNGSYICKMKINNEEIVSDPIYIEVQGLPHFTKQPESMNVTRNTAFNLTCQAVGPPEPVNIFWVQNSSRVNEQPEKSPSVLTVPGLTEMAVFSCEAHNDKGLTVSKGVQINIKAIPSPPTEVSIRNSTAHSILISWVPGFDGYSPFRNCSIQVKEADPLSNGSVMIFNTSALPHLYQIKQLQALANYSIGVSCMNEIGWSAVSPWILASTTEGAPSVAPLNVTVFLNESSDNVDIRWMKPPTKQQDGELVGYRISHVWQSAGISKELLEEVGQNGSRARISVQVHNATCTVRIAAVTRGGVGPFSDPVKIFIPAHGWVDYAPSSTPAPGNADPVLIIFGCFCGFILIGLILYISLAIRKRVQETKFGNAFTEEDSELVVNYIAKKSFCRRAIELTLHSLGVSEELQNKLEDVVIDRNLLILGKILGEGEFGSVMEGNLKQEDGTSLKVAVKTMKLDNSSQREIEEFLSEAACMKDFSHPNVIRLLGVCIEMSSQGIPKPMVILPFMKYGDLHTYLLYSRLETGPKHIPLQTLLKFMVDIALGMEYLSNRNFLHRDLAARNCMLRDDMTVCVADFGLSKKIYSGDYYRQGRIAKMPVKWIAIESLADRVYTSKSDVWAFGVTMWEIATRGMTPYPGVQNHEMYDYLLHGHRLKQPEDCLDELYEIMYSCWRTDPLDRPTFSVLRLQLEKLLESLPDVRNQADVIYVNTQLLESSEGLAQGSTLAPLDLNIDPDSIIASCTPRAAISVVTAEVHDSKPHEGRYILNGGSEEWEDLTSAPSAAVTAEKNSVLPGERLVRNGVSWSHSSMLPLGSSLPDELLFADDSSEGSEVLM
In short: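 IC50 from phospho-Mer ELISA of MERTK-transfected 293A cell lysates after 1 h treatment with serially diluted compound in serum-free medium.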

Sequence of Met (phospho-Met, HGF-stimulated PC-3 prostate cancer cells) (P08581 25-1390): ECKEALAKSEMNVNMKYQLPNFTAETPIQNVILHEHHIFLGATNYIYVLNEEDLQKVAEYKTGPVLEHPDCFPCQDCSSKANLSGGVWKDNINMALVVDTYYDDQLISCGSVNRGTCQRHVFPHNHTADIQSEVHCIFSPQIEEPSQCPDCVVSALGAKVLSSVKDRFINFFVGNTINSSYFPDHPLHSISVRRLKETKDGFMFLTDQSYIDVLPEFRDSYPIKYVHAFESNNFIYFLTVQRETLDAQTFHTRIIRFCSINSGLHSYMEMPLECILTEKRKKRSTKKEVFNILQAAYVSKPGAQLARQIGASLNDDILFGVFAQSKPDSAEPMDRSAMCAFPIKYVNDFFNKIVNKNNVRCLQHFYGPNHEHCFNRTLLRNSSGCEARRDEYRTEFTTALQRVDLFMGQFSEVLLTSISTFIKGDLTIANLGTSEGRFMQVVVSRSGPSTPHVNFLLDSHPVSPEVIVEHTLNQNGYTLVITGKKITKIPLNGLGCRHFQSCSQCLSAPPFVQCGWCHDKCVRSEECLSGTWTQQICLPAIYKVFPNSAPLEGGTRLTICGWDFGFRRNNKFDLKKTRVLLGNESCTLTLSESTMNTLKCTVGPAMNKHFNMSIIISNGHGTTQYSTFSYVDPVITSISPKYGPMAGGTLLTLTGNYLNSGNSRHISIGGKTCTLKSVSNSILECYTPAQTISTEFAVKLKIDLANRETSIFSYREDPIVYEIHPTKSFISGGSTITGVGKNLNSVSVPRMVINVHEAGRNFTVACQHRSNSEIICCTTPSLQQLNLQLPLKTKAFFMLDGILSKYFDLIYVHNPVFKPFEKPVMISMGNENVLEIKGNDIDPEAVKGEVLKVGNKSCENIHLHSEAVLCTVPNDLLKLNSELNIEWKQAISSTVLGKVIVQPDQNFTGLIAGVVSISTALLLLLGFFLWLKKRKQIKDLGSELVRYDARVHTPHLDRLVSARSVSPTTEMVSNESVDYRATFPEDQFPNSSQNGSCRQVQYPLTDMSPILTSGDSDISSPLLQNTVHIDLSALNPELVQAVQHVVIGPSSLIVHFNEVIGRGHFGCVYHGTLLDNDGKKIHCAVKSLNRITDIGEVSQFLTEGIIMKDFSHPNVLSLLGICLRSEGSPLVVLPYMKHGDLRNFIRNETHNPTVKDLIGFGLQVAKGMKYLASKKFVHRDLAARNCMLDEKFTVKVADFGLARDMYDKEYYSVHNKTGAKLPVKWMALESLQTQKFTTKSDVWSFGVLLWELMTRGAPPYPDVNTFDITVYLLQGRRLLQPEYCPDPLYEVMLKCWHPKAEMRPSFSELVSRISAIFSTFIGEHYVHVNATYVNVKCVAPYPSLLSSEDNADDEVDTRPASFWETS

SMILES	IC50 [1]	IC50 [2]	IC50 [3]	IC50 [4]
COc1cnc2c(Oc3ccc(NC(=O)c4c(C)nc(C)c(-c5ccc(OC)c(F)c5)c4O)cc3F)ccnc2c1 [Compound 693, N-[3-fluoro-4-[(7-methoxy-1,5-naphthyridin-4-yl)oxy]phenyl]-5-(3-fluoro-4-methoxyphenyl)-4-hydroxy-2,6-dimethylpyridine-3-carboxamide]	100 to 300 nM	< 100 nM	> 300 nM	< 100 nM
COc1cc2nccc(Oc3ccc(NC(=O)c4c(C)c(C(C)=O)c(C)n(-c5ccc(F)cc5)c4=O)cc3)c2nc1OC [Compound 322, 5-Acetyl-N-[4-[(6,7-dimethoxy-1,5-naphthyridin-4-yl)oxy]phenyl]-1-(4-fluorophenyl)-4,6-dimethyl-2-oxopyridine-3-carboxamide]	< 100 nM	100 to 300 nM	< 100 nM	< 100 nM
COc1cc2nccc(Oc3ccc(NC(=O)c4cn(C(C)(C)CO)cc(-c5ccc(F)cc5)c4=O)cc3F)c2cc1OC [Compound 57, N-[4-(6,7-Dimethoxyquinolin-4-yl)oxy-3-fluorophenyl]-5-(4-fluorophenyl)-1-(1-hydroxy-2-methylpropan-2-yl)-4-oxopyridine-3-carboxamide]	< 100 nM	> 300 nM	< 100 nM	< 100 nM
COCc1nc(C)c(-c2ccc(F)cc2)c(O)c1C(=O)Nc1ccc(Oc2ccnc3cc(C)c(F)nc23)c(F)c1 [Compound 446, N-[3-fluoro-4-[(6-fluoro-7-methyl-1,5-naphthyridin-4-yl)oxy]phenyl]-5-(4-fluorophenyl)-4-hydroxy-2-(methoxymethyl)-6-methylpyridine-3-carboxamide]	< 100 nM	< 100 nM	< 100 nM	< 100 nM
COc1cnc2c(Oc3ccc(NC(=O)c4cc(C(C)=O)c(C)n(-c5ccc(F)cc5)c4=O)cc3F)ccnc2c1 [Compound 656, 5-acetyl-N-[3-fluoro-4-[(7-methoxy-1,5-naphthyridin-4-yl)oxy]phenyl]-1-(4-fluorophenyl)-6-methyl-2-oxopyridine-3-carboxamide]	< 100 nM	> 300 nM	< 100 nM	< 100 nM
COc1cnc2c(Oc3ccc(NC(=O)c4c(C)ncc(-c5ccc(F)cc5OC)c4O)cc3F)ccnc2c1 [Compound 793, N-[3-fluoro-4-[(7-methoxy-1,5-naphthyridin-4-yl)oxy]phenyl]-5-(4-fluoro-2-methoxyphenyl)-4-hydroxy-2-methylpyridine-3-carboxamide]	< 100 nM	< 100 nM	< 100 nM	< 100 nM

More lines, now with the values ahead:

IC50 [1]	IC50 [2]	IC50 [3]	IC50 [4]	SMILES
< 100 nM	100 to 300 nM	< 100 nM	< 100 nM	COc1cc2nccc(Oc3ccc(NC(=O)c4cnc(C5CC5)c(-c5ccc(F)cc5)c4O)cc3F)c2nc1OC [Compound 662, 6-cyclopropyl-N-[4-[(6,7-dimethoxy-1,5-naphthyridin-4-yl)oxy]-3-fluorophenyl]-5-(4-fluorophenyl)-4-hydroxypyridine-3-carboxamide]
< 100 nM	> 300 nM	< 100 nM	< 100 nM	COc1cc2nccc(Oc3ccc(NC(=O)c4c5n(c(C)c(-c6ccc(F)cc6C)c4=O)CCOC5)cc3F)c2nc1OC [Compound 782, N-[4-[(6,7-dimethoxy-1,5-naphthyridin-4-yl)oxy]-3-fluorophenyl]-7-(4-fluoro-2-methylphenyl)-6-methyl-8-oxo-3,4-dihydro-1H-pyrido[2,1-c][1,4]oxazine-9-carboxamide]
< 100 nM	< 100 nM	< 100 nM	< 100 nM	CCOc1nc2c(Oc3ccc(NC(=O)c4c(C)nc(C)c(-c5ccc(F)cc5C)c4O)cc3F)ccnc2cc1OC [Compound 678, N-[4-[(6-ethoxy-7-methoxy-1,5-naphthyridin-4-yl)oxy]-3-fluorophenyl]-5-(4-fluoro-2-methylphenyl)-4-hydroxy-2,6-dimethylpyridine-3-carboxamide]
< 100 nM	100 to 300 nM	< 100 nM	< 100 nM	COc1cc2nccc(Oc3ccc(NC(=O)c4c(C)n(CC(F)F)cc(-c5ccc(F)cc5)c4=O)cc3F)c2nc1OC [Compound 702, 1-(2,2-difluoroethyl)-N-[4-[(6,7-dimethoxy-1,5-naphthyridin-4-yl)oxy]-3-fluorophenyl]-5-(4-fluorophenyl)-2-methyl-4-oxopyridine-3-carboxamide]
